Laboratory results reported in patent publication US8952024B2, “Herbicidal pyrimidone derivatives” (E I du Pont de Nemours and Company, priority 2009, dated 2015).

Experiments:
Assay in all cases: Test B pre-/postemergence plant response
Type in all cases: in vivo
[1] = tested on: sunflower (common oilseed sunflower, Helianthus annuus); settings: Preemergence
Procedure, shortened: (§1)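 Steps: sow seed in loam–sand soil and spray preemergence, or grow plants in peat-based medium to 1–4 leaves (2–18 cm) and spray postemergence; formulation is non-phytotoxic solvent plus surfactant; hold in greenhouse 13–15 days; score visually vs controls, 0 = no effect, 100 = complete control.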

wild oat (Avena fatua) = settings: for Oat, Wild plant response rating (0 to 100 scale): 0 is no effect
Procedure, shortened: as §1

[2] = tested on: galium (catchweed bedstraw, Galium aparine)
Procedure, shortened: as §1

[3] = tested on: nightshade (eastern black nightshade, Solanum ptycanthum); settings: Preemergence
Procedure, shortened: as §1

[4] = Postemergence, 62 g ai/ha, scale 0 (no effect) to 100 (complete control), 13 to 15 days
[5] = Postemergence, 125 g ai/ha, visual rating after 13 to 15 days, scale 0 (no effect) to 100 (complete control)
[6] = 250 g ai/ha, Preemergence, 0 to 100 scale
[7] = Preemergence, 31 g ai/ha, scale 0 to 100 (0 no effect, 100 complete control)
[8] = Preemergence, 62 g ai/ha, scale 0 to 100 (0 no effect, 100 complete control)
[9] = Preemergence, 125 g ai/ha, scale 0 to 100, 0 no effect, 100 complete control
[10] = 31 g ai/ha, scale 0 to 100 (0 no effect, 100 complete control)
[11] = 62 g ai/ha, scale 0 to 100 (0 no effect, 100 complete control)
[12] = 125 g ai/ha, scale 0 to 100, 0 no effect, 100 complete control
[13] = 31 g ai/ha, postemergence, scale 0 to 100, 0 is no effect, 100 is complete control
[14] = Postemergence, 250 g ai/ha, scale 0 to 100 (0 no effect, 100 complete control)
[15] = 62 g ai/ha, postemergence, 100 is complete control, 13 to 15 days
[16] = Preemergence, 250 g ai/ha, 0 to 100 scale
[17] = Postemergence, 31 g ai/ha, 0 to 100 scale (0 no effect, 100 complete control)
[18] = Postemergence, 125 g ai/ha, scale 0 to 100 (0 no effect, 100 complete control)
[19] = Postemergence, 250 g ai/ha, scale 0 to 100 (0 no effect, 100 complete control), 13 to 15 days
[20] = Postemergence, 62 g ai/ha, scale 0 to 100 (0 no effect, 100 complete control)

Row | Compound | Plant response rating, Oat, Wild (wild oat (Avena fatua); [4]) | Plant response rating, Oat, Wild (wild oat (Avena fatua); [5]) | Plant response rating, Galium [2, 6] | Plant response rating, Galium [2, 7] | Plant response rating, Galium [2, 8] | Plant response rating, Galium [2, 9] | Plant response rating, Nightshade [3, 10] | Plant response rating, Nightshade [3, 11] | Plant response rating, Nightshade [3, 12] | Plant response rating, Sunflower [1, 10] | Plant response rating, Sunflower [1, 11] | Plant response rating, Sunflower [1, 12] | Plant response rating, Oat, Wild (wild oat (Avena fatua); [13]) | Plant response rating, Oat, Wild (wild oat (Avena fatua); [14]) | Plant response rating, Oat, Wild (wild oat (Avena fatua); [7]) | Plant response rating, Oat, Wild (wild oat (Avena fatua); [8]) | Plant response rating, Oat, Wild (wild oat (Avena fatua); [9]) | Plant response rating, Galium [2, 17] | Plant response rating, Galium [2, 19] | Plant response rating, Oat, Wild (wild oat (Avena fatua); [17]) | further results
1 | 5-[(2-hydroxy-6-oxo-1-cyclohexen-1-yl)carbonyl]-2,3-diphenyl-4(3H)-pyrimidinone [Compound 2] | 5 | 10 | – | – | – | – | – | – | – | – | – | – | – | – | – | – | – | – | – | – | Sunflower plant response rating (0 to 100 scale) ([1]; 0 is no effect, 100 is complete control, rated after 13 to 15 days, application rate of this section not shown): 0; Plant response rating, Oat, Wild (wild oat (Avena fatua); Postemergence, 31 g ai/ha, scale 0 to 100 (0 no effect, 100 complete control)): 5; Oat, Wild plant response rating (wild oat (Avena fatua); Postemergence, 250 g ai/ha, scale 0 to 100): 10
2 | Cc1cc(-n2c(-c3ccccc3)ncc(C(=O)C3=C(O)CCCC3=O)c2=O)ccc1F [Compound 53] | 70 | 85 | 90 | 0 | 0 | 0 | 98 | 98 | 100 | 15 | 55 | 65 | 50 | 85 | 0 | 0 | 0 | – | – | – | –
3 | Cn1c(-c2ccccc2)ncc(C(=O)C2=C(O)CCCC2=O)c1=O [Compound 55] | 0 | 0 | 85 | 0 | 0 | 20 | 60 | 98 | 100 | 10 | 60 | 60 | 0 | 5 | 0 | 0 | 0 | – | – | – | –
4 | O=C1CCCC(O)=C1C(=O)c1cnc(-c2ccsc2)n(-c2ccccc2)c1=O [Compound 56] | 20 | 40 | 85 | 0 | 0 | 60 | 85 | 98 | 98 | 0 | 60 | 65 | 5 | 45 | 0 | 0 | 0 | – | – | – | –
5 | CCCCc1ncc(C(=O)C2=C(O)CCCC2=O)c(=O)n1-c1cccc(C)c1 [Compound 63] | 0 | 5 | 20 | 0 | 0 | 0 | 80 | 95 | 98 | 5 | 15 | 20 | 0 | 20 | 0 | 0 | 0 | – | – | – | –
6 | O=C1CCCC(O)=C1C(=O)c1cnc(-c2cccc(Cl)c2)n(-c2ccc(Cl)cc2)c1=O [Compound 64] | 90 | 95 | 70 | 0 | 0 | 30 | 55 | 85 | 95 | 0 | 0 | 0 | 60 | 98 | 0 | 0 | 0 | – | – | – | –
7 | CCCCc1ncc(C(=O)C2=C(O)CCCC2=O)c(=O)n1-c1ccc(C)cc1 [Compound 67] | – | 10 | 90 | 0 | 35 | 85 | 70 | 95 | 95 | 0 | 20 | 35 | 0 | 10 | 0 | 0 | 0 | – | – | – | Oat, Wild plant response rating (0 to 100 scale) (wild oat (Avena fatua); [15]): 5
8 | CCCc1ncc(C(=O)C2=C(O)CCCC2=O)c(=O)n1-c1ccccc1C [Compound 73] | – | 80 | 85 | – | 30 | 80 | 75 | 95 | 98 | 0 | 20 | 70 | 55 | 95 | 0 | 0 | 0 | – | – | – | Oat, Wild plant response rating (0 to 100 scale) (wild oat (Avena fatua); [15]): 80
9 | CCCc1ncc(C(=O)C2=C(O)CCCC2=O)c(=O)n1CC1CCCO1 (stereo not shown) [Compound 74] | – | 60 | – | 20 | 30 | 40 | 85 | 98 | 98 | 0 | 55 | 70 | 20 | 80 | 0 | 0 | 5 | – | – | – | Galium plant response rating [2, 16]: 98; Nightshade plant response rating ([3]; 250 g ai/ha, 0 to 100 scale): 100; Sunflower plant response rating ([1]; 250 g ai/ha, 0 to 100 scale): 85; Oat, Wild plant response rating (0 to 100 scale) (wild oat (Avena fatua); [15]): 20; Oat, Wild plant response rating (wild oat (Avena fatua); [16]): 5
10 | O=C1CCCC(O)=C1C(=O)c1cnc(-c2cccc(F)c2)n(C2CCCCC2)c1=O [Compound 187] | – | – | – | – | – | – | – | – | – | – | – | – | – | – | – | – | – | 20 | 85 | 10 | Plant response rating, Galium [2, 18]: 55; Plant response rating, Oat, Wild (wild oat (Avena fatua); [18]): 45; Plant response rating, Oat, Wild (wild oat (Avena fatua); [19]): 45
11 | O=C1CCCC(O)=C1C(=O)c1cnc(-c2cccs2)n(C2CCCCC2)c1=O [Compound 189] | – | – | – | – | – | – | – | – | – | – | – | – | – | – | – | – | – | 20 | 85 | 5 | Plant response rating, Galium [2, 18]: 85; Plant response rating, Oat, Wild (wild oat (Avena fatua); [18]): 10; Plant response rating, Oat, Wild (wild oat (Avena fatua); [19]): 25
12 | CCCn1c(-c2cccc(Cl)c2)ncc(C(=O)C2=C(O)CCCC2=O)c1=O [Compound 190] | – | – | – | – | – | – | – | – | – | – | – | – | – | – | – | – | – | 50 | 85 | 0 | Plant response rating, Galium [2, 18]: 60; Plant response rating, Oat, Wild (wild oat (Avena fatua); [18]): 40; Plant response rating, Oat, Wild (wild oat (Avena fatua); [19]): 50
13 | Cc1cc(-n2c(-c3cccc(F)c3)ncc(C(=O)C3=C(O)CCCC3=O)c2=O)ccc1F [Compound 191] | – | – | – | – | – | – | – | – | – | – | – | – | – | – | – | – | – | 20 | 60 | 50 | Plant response rating, Galium [2, 20]: 40; Plant response rating, Galium [2, 18]: 60; Plant response rating, Oat, Wild (wild oat (Avena fatua); [20]): 60; Plant response rating, Oat, Wild (wild oat (Avena fatua); [18]): 70; Plant response rating, Oat, Wild (wild oat (Avena fatua); [19]): 80
14 | O=C1CCCC(O)=C1C(=O)c1cnc(-c2ccc(F)cc2)n(C2CCCCC2)c1=O [Compound 197] | – | – | – | – | – | – | – | – | – | – | – | – | – | – | – | – | – | 75 | 80 | 40 | Plant response rating, Galium [2, 20]: 75; Plant response rating, Oat, Wild (wild oat (Avena fatua); [20]): 40; Plant response rating, Oat, Wild (wild oat (Avena fatua); [19]): 85
